# Assay results published in patent US5856095A, “Identification of two novel mutant alleles of human thiopurine S-methyltransferase, and diagnostic uses thereof” (priority 1995, dated 1999).
# Changes are numbered by the printed parent chain. In names and notes the source's numbering stands. Entries after “also recorded” stand apart in the source; their conditions may differ. Like-named read-outs stand apart in the source and are kept apart here.
# T1: TPMT719 (Homo sapiens, UniProt P51580, Y240C)
# T1 sequence (P51580 1-245 Y240C): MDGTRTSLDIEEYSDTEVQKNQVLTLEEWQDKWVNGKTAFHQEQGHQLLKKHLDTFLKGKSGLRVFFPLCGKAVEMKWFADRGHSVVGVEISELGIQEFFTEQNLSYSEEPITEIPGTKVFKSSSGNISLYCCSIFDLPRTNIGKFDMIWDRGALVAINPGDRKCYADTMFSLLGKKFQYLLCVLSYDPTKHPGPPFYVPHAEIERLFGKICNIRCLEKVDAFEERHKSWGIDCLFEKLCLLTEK
# T2: TPMTB (Homo sapiens, UniProt P51580, A154T/Y240C)
# T2 construct: the whole mutant proteins are expressed in yeast; made in house; host or cells: yeast strain 2805
# T2 sequence (P51580 1-245 A154T/Y240C): T1 sequence (P51580 1-245 Y240C) with A154T
# B1: TPMTA: mutant TPMT with G238C point mutation, Ala80→Pro, expressed in yeast (protein)
# chain: T1 sequence (P51580 1-245 Y240C) with A80P, C240Y
# B2: wild-type TPMT: wild-type human thiopurine S-methyltransferase expressed in yeast (protein)
# chain: T1 sequence (P51580 1-245 Y240C) with C240Y
# B3: TPMT460: TPMT from cDNA containing only G460A (Ala154→Thr), expressed in yeast (protein)
# chain: T1 sequence (P51580 1-245 Y240C) with A154T, C240Y
# B4: TPMT719: TPMT from cDNA containing only A719G (Tyr240→Cys), expressed in yeast (protein)
# chain: T1 sequence (P51580 1-245 Y240C)
# What was measured:
# TPMT460 = tested on: TPMT460
# Text: (§1) FIGS. 9A, 9B, and 9C depict comparison of TPMT mRNA, protein, and activity levels in yeast transformed with vector alone without any insert (lane 1), vector with wild-type cDNA (lane 2), vector with cDNA containing G460A (lane 3), vector with cDNA containing A719G (lane 4), vector with cDNA containing both G460A and A719G (TPMTB) (lanes 5 and 6).
# (§2) The wild type and mutant cDNA clones were used as templates for site-directed mutagenesis. PCR conditions were as described above except that annealing temperature was changed to 50° C. and 1.3 units of Pyrococcus furiosus DNA polymerase (Stratagene, La Jolla, Calif.) was used. […] In order to prepare cDNA containing either mutation found in this patient, two reverse primers were designed for further mutagenesis. […] The resultant PCR products were also ligated into the expression vector. […] Nucleotide structures of all cDNAs were confirmed by sequencing.
# (§3) Yeast cells were treated with Lyticase (Sigma, St. Louis, Mo.), sedimented after washing with a buffer (pH 6.2) containing 20 mM 2-[N-morpholino]ethanesulfonic acid (MES) and 1.5M sorbitol, and resuspended with Tris-HCl buffer (pH 7.8) containing 100 KIU/Ml aprotinin and 1 mM phenylmethylsulfonyl fluoride. After sonication, the cytosolic fraction was obtained by centrifugation at 100,000 g for 60 min at 4° C. […] The level of expression was measured by Western blot analysis.
# (§4) The amount of TPMT in each reaction was made the same (0.57 μg TPMT) by adjusting the amount of yeast cytosol according to TPMT protein levels detected by the Western-blot analysis.
# TPMT719 = molecular target: T1, TPMT719
# Text: as §1, §2, §3, §4
# TPMTB = molecular target: T2, TPMTB; assay: S-methylation of 6-MP catalyzed by TPMTB (G460A and A719G) expressed in yeast (kinetic parameters, activity); assay type: biochemical; conditions: 6MP concentrations up to 2 mM
# Method: Yeast cells transformed with recombinant expression vectors or the vector without TPMT cDNA (control) were grown on galactose-containing medium for 24 hr at 30° C. Yeast cells were treated with Lyticase (Sigma, St. Louis, Mo.), sedimented after washing with a buffer (pH 6.2) containing 20 mM 2-[N-morpholino]ethanesulfonic acid (MES) and 1.5M sorbitol, and resuspended with Tris-HCl buffer (pH 7.8) containing 100 KIU/Ml aprotinin and 1 mM phenylmethylsulfonyl fluoride. After sonication, the cytosolic fraction was obtained by centrifugation at 100,000 g for 60 min at 4° C. The concentration of protein in yeast lysates was determined using the Bio-RadDC protein assay (Lowry, O. H., et al., J. Biol. Chem. 193:265-275 (1951)). The level of expression was measured by Western blot analysis.
# These reaction conditions differ from that previously published (Krynetski, E. Y. et al., Mol. Pharmacol. 47:1141-1147 (1995)); i.e. incubation at 37 C instead of 21.5 C, analysis of MeMP production formation instead of substrate disappearance, and the use of higher substrate concentrations in the present study. The amount of TPMT in each reaction was made the same (0.57 μg TPMT) by adjusting the amount of yeast cytosol according to TPMT protein levels detected by the Western-blot analysis. […]
# [1] = Hematopoietic toxicity of thiopurines in TPMT-deficient patients; assay type: in vivo, human
# Text: TPMT phenotype was assigned on the basis of erythrocyte TPMT activity, according to the criteria of Weinshilboum and Sladek (Weinshilboum and Sladek, Am. J. Hum. Genet. 32:651-662 (1980)).
# TPMTA = TPMTA (Homo sapiens, UniProt P51580, A80P); conditions: heterologously expressed TPMTA
# [2] = human, in vivo
# [3] = patients with TPMT deficiency treated with standard dosages; cited from earlier work
# TPMT [4] = assay: TPMT enzymatic activity of yeast lysates expressing wild-type or G238C mutant TPMT cDNA (Example 1); assay type: biochemical, human; conditions: for enzymatic activity, fold difference between wild-type and G238C mutant TPMT: expressed in yeast; for TPMT activity in yeast lysates: yeast transformed with wild-type or G238C mutant TPMT cDNA
# Method: In all experiments on heterologous expression of TPMT, yeast transformed with the expression vector without the TPMT cDNA insert was used as a control.
# Enzymatic activity of yeast lysates was assayed in a total volume of 1 ml, and formation of the S-methylated thiopurine product was determined by HPLC.
# TPMT [5] = assay: Intrinsic stability of recombinant TPMT proteins at 37° C. in vitro; assay type: biochemical, human; conditions: for TPMT activity at 37° C., 0 hr: yeast lysates, 2 mM 6MP and 1 mM SAM; for time to inactivation: 0.1M Tris-HCl pH 7.5
# Method: Yeast cytosols expressing wild-type TPMT460, or TPMT719 protein were incubated in 0.1M Tris-HCl (pH 7.5) at 37° C. […] The assay of TPMT activity was then allowed to proceed for 15 min at 37° C., and MeMP was measured as described above. Total protein concentrations of yeast lysate in the incubation mixture were 0.09, 0.37, 0.08 mg/ml for the wild-type, TPMT460, and TPMT719, respectively, to give equal amount of TPMT in the incubation. The same assay mixture without yeast lysate served as the blank, and the background values for non-enzymatic methylation (<10%) were subtracted from all values obtained. An aliquot of sample at each time point was taken for Western blot analysis. The samples at 0° C., 0 hr served as controls for the blots with TPMT460 and TPMT719.
# [6] = yeast lysates, 10 μM 6MP and 1 mM SAM (FIG. 9C)
molecule,measurement,setting,value
"Sc1ncnc2nc[nH]c12 [6MP, 6-mercaptopurine]",increase in Km for 6MP versus wild-type,TPMT460; substrate 6MP,46 fold
same,"catalytic activity reduced compared with wild-type, normalized to TPMT content",TPMT460; [6],9 fold
same,intrinsic clearance (Vmax/Km) relative to wild-type,TPMT719,comparable to wild-type
same,"catalytic activity reduced compared with wild-type, normalized to TPMT content",TPMT719; [6],1.4 fold
same,TPMT activity (S-methylation of 6MP),TPMTB,no activity of TPMTB could be detected; also recorded: undetectable
same,hematopoietic toxicity,"[1]; TPMT-deficient child with acute lymphoblastic leukemia, oral 75 mg/m2 per day",severe hematopoietic toxicity
same,hematopoietic toxicity,"[1]; TPMT-deficient child with acute lymphocytic leukemia, 50 mg/m2/day",severe hematopoietic toxicity
same,"Vmax/Km ratio, fold lower than wild-type TPMT",TPMTA,5 fold
same,"erythrocyte concentration of TGNs, fold higher than the population median",[2],> 15 fold
same,"erythrocyte concentration of TGNs, population median",[2],280 pmol/ml pRBC
same,hematopoietic toxicity,[3],severe hematopoietic toxicity
C[S+](CC[C@H](N)C(=O)O)C[C@H]1O[C@@H](n2cnc3c(N)ncnc32)[C@H](O)[C@@H]1O (some centres unmarked) [SAM],increase in Km for co-substrate SAM versus wild-type,TPMT460; co-substrate SAM,200 fold
Cn1cnc([N+](=O)[O-])c1Sc1ncnc2nc[nH]c12 [azathioprine],hematopoietic toxicity,[3],severe hematopoietic toxicity
B1,"enzymatic activity, fold difference between wild-type and G238C mutant TPMT",TPMT [4],approximately 100 fold
same,"enzymatic activity, fold difference between wild-type and G238C mutant TPMT",TPMT [4]; listed as mutant TPMT,≈ 100 fold
same,TPMT activity in yeast lysates,TPMT [4],< 1.0 nmol/hr per mg of protein
B2,TPMT activity in yeast lysates,TPMT [4],113-123 nmol/hr per mg of protein
same,TPMT activity remaining,"TPMT [5]; 37° C., 12 hr",30%
same,"TPMT activity at 37° C., 0 hr",TPMT [5],83.7 nmol/min/mg TPMT
B3,time to inactivation,TPMT [5]; 37° C.,≤ 4 h
same,"TPMT activity at 37° C., 0 hr",TPMT [5],142.5 nmol/min/mg TPMT
B4,time to inactivation,TPMT [5]; 37° C.,≤ 4 h
same,"TPMT activity at 37° C., 0 hr",TPMT [5],88.6 nmol/min/mg TPMT
